From patent publication US6846802B2, “Macrocyclic NS3-serine protease inhibitors of hepatitis C virus comprising N-cyclic P2 moieties” (priority 2000, dated 2005)
Starred links: 1 amine or outer side, 2 acyl side, 3 side chain; linkers in the order of their positions; H or OH if unused. Positions of bridges follow the written chain, without caps; N, C: chain ends. Non-standard residues stand in square brackets, D forms with d. Residues, ends and D or L forms follow the SMILES beside them. Tic(7-O(CH2)6CO) = O=C([C@@H]1Cc2ccc(OCCCCCCC(=O)[*:3])cc2CN1[*:1])[*:2]; X1 = CCC[C@H](N[*:1])C(=O)C(=O)[*:2]; Chg = N[C@H](C(=O)O)C1CCCCC1; Phg = N[C@H](C(=O)O)c1ccccc1

Biological target: HCV serine protease (subtype 1b, 1bNS4A21-32GS-GS NS3-81 I17K) in HeLa/Huh7 cells (Hepatitis C virus genotype 1b, UniProt P26663, I1043K)
Type: cell-based

SMILES	Cell-Based Assay [µM]
CCCC(NC(=O)[C@@H]1C[C@@H]2CN1C(=O)[C@H](C1CCCCC1)NC(=O)Cc1cccc(c1)OCCO2)C(=O)C(=O)NCC(=O)N[C@H](C(=O)OC(C)(C)C)c1ccccc1 (mixture of isomers) [Compound 8]	3.5
CCC[C@H](NC(=O)[C@@H]1C[C@@H]2CN1C(=O)[C@H](C1CCCCC1)NC(=O)Cc1cccc(c1)OCCCCO2)C(=O)C(=O)NCC(=O)N[C@H](C(=O)N(C)C)c1ccccc1 [Compound 4B]	1.8
CCCC(NC(=O)[C@@H]1C[C@@H]2CN1C(=O)[C@H](C1CCCCC1)NC(=O)Cc1cccc(c1)OCCCO2)C(=O)C(=O)NCC(=O)OCc1ccccc1 (stereo partly shown) [Compound 23]	3
CCC[C@H](NC(=O)[C@@H]1C[C@@H]2CN1C(=O)[C@H](C(C)(C)C)NC(=O)Cc1cccc(c1)OCCCO2)C(=O)C(=O)NCC(=O)N[C@H](C(=O)N(C)C)c1ccccc1 [Compound 12B]	5.2
CCCC(NC(=O)[C@@H]1C[C@@H]2CN1C(=O)[C@H](C1CCCCC1)NC(=O)Cc1cccc(c1)OCCCCO2)C(=O)C(=O)NCC(=O)N[C@H](C(=O)OC(C)(C)C)c1ccccc1 (mixture of isomers) [Compound 5]	0.6
CCC[C@@H](NC(=O)[C@@H]1C[C@@H]2CN1C(=O)[C@H](C1CCCCC1)NC(=O)Cc1cccc(c1)OCCCCO2)C(=O)C(=O)NCC(=O)N[C@H](C(=O)N(C)C)c1ccccc1 [Compound 4A]	2.5
CCCC(NC(=O)[C@@H]1C[C@@H]2CN1C(=O)[C@H](C1CCCCC1)NC(=O)CCc1cccc(c1)OCCO2)C(=O)C(=O)NCC(=O)N[C@H](C(=O)OC(C)(C)C)c1ccccc1 (stereo partly shown) [Compound 21]	2
CCCC(NC(=O)[C@@H]1C[C@@H]2CN1C(=O)[C@H](C1CCCCC1)NC(=O)Cc1cccc(c1)OCCCO2)C(=O)C(=O)NCC(=O)N[C@H](C(=O)OC(C)(C)C)c1ccccc1 (stereo partly shown) [Compound 2]	2
CCC[C@H](NC(=O)[C@@H]1Cc2ccc3cc2CN1C(=O)[C@H](C1CCCCC1)NC(=O)CCCCCCO3)C(=O)C(=O)NCC(=O)N[C@H](C(=O)N(C)C)c1ccccc1 [Compound 57B] ([Chg][Tic(7-O(CH2)6CO)][X1]G[Phg]-NMe2; lactam N-2)	1.5
CCCC(NC(=O)[C@@H]1Cc2ccc3cc2CN1C(=O)[C@H](C1CCCCC1)NC(=O)CCCCCCO3)C(=O)C(=O)NCC(=O)N[C@H](C(=O)OC(C)(C)C)c1ccccc1 (mixture of isomers) [Compound 58]	2
